The values that follow come from US20240376119A1, “SPIRO COMPOUND AND USE THEREOF” (CSPC Zhongqi Pharmaceutical Technology (Shijiazhuang) Co., …, priority 2021, published 2024).

Where only a bound is given, the exact number is not on record here.

One data set concerns the target SHP2 (Homo sapiens (Human), UniProt Q06124). In words: Assay for the inhibitory effect on the SHP2 enzyme (DiFMUP substrate, fluorescence). The format is biochemical. Conditions: SHP2 activated with SHP-2 activated peptide; DiFMUP 10 μM; read-out: Enzymatic Effect (IC50 on SHP2). On the procedure: 1× Assay buffer was prepared. A compound to be tested was diluted with DMSO solvent to a stock concentration of 10 mM. The compound to be tested was first diluted to an intermediate concentration of 1000 μM and then further diluted in a 3-fold gradient using DMSO. Therefore, the intermediate gradient dilution concentration of the compound to be tested was: 1000 μM, 3-fold dilution, 11 gradients. 100 nL of each concentration of the compound in the 384-well LDV echo plate was transferred to a new 384-well ELISA plate (assay plate) (corning, Cat #4514) by the Echo550 instrument. The final concentration of the compound to be tested was 10 μM, 3-fold dilution, 11 gradients in duplicate after 10 μL of the reaction reagent was added. The final DMSO concentration was 1%. For both negative and positive control wells, 100 nL DMSO would be transferred.
A mixed liquor of 2× working SHP2 reagent (0.4 nM) and 0.5 μM SHP-2 activated peptide (BPS bioscience #79319-2) was prepared with 1× enzyme buffer. After the above-mixed liquor was incubated at 25° C. for 60 minutes, 5 μL of activated SHP2 kinase solution was transferred with a pipettor to the compound wells and the Max control wells (Corning, #4514) of the plate. Then 5 μL of 1× kinase buffer was transferred to the Min control wells. The plate was centrifuged at 1000 rpm for 30 seconds, sealed, and incubated in a 25° C. constant-temperature incubator for 30 minutes. A substrate solution of DiFMUP (#D6567, Invitrogen™) was prepared with 1× kinase buffer, and its concentration should be 2 times as the final concentration of the assay (DiFMUP final concentration: 10 μM). 5 μL of the prepared substrate solution was transferred with an electric pipettor into each well of the ELISA plate to start the reaction. The plate was centrifuged at 1000 rpm for 30 seconds, sealed, and incubated in a 25° C. constant-temperature incubator for 60 minutes. Read the plate at the excitation/emission wavelength of 358/455 nm after the ELISA plate was placed on the Spark machine.
The RLU values were collected from Spark and the inhibition rate was calculated with the RLU values. Inhibition rate=(maximum value-sample RLU)/(maximum value-minimum value)*100. “Minimum value” was referred to the RLU of the enzyme-free control, and “maximum value” was referred to the RLU of the DMSO control. The data were fit by using the XLFit Excel module (version 5.4.0.8) to obtain IC50 values, and the results are shown in Table 1.

Data set [1] relates to human acute myeloid leukemia MV-4-11 cells. In words: In vitro inhibitory effect on the proliferation of MV-4-11 cells (MTT, 72 h). Type of data set: cell-based. Conditions: MV4-11, 72 hours exposure. As for the experimental part: The human acute myeloid leukemia MV-4-11 cells used in the assay were purchased from Shanghai Institutes for Biological Sciences, Chinese Academy of Sciences. The complete culture medium required for cell culture was IMDM (GIBCO Company), which was supplemented with 10% fetal bovine serum (GIBCO Company). Cells were cultured in a 37° C., 5% CO2 incubator. The reagents used in the assay included dimethyl sulfoxide (purchased from Tianjin Kemiou Chemical Reagent Co., Ltd.), and MTT (Shanghai Topbiochem Co., Ltd., CAS. NO. 298-93-1). The test substance was sealed and stored at 4° C.
Dimethyl sulfoxide was used as the solvent to fully dissolve the test substance and prepare a stock solution with a concentration of 5×10^−2 mol/L. The stock solution was stored at −20° C. A complete culture medium was used as the diluent, and the test substance was diluted to different concentrations in a gradient for later use. 100 µL/well (2×10^4 cells/well) of a suspension of MV-4-11 cells in the complete culture medium was added to a 96-well culture plate. 100 μL/well of the corresponding test substances at different concentrations were added respectively. 8 concentrations were set for each test substance, and 3 duplicate wells were set for each concentration. The plate was cultured in a 37° C., 5% CO2 incubator. 20 μL/well of MTT was added after 72 hours of exposure to the test substances. The plate was cultured for 4 hours in a 37° C., 5% CO2 incubator. The supernatant was discarded, and 150 μL/well of dimethyl sulfoxide was added. The plate contents were oscillated and mixed evenly. The microplate reader was used to detect the OD value at a wavelength of 550 nm. The well only containing the cell suspension without test substance was a control well, and the well only containing the complete culture medium was a blank well. The inhibition rate of the cell growth was calculated with the following formula: • Inhibition rate=(ODcontrol well-ODtest well)/(ODcontrol well-ODblank well)*100%. According to the inhibition rates at each concentration, SPSS software was used to calculate the half inhibitory concentration IC50 value.

Another data set addresses hERG channel (Homo sapiens (Human), UniProt Q12809). In words: hERG assay, manual whole-cell patch clamp in CHO-K1 cell line stably expressing the hERG channel. Type of data set: cell-based. As for the experimental part: This assay included the following aspects: • A manual patch clamp technique was used to record the hERG current in the CHO-K1 cell line stably expressing the hERG channel; • The inhibition rate at each concentration was calculated based on the hERG tail current; • Each compound was tested at 5 concentrations to calculate the IC50 value; • Three cells were tested for each concentration; • One positive control drug was set.
HERG currents were recorded using the whole-cell patch-clamp technique. The cell suspension was added to the cell tank and placed on the upright microscope stage. After the cell adherence, the cells were perfused with extracellular fluid at a flow rate of 1-2 mL/min. The glass microelectrode was drawn in two steps by a micropipette puller, and its resistance value in water was 2-5 MΩ. After establishing the whole-cell recording, the clamp potential was maintained at −80 mV. The hERG tail current was elicited by applying a depolarizing voltage to +60 mV upon the voltage stimulation and then repolarizing to −50 mV. All recordings were made after the current stabilization. Extracellular perfusion administration started from a low concentration, and each concentration lasted for 5-10 minutes until the current was stable, and then proceeded to the next concentration.
The half inhibitory concentration (ICSO) of the test compound was derived from the best fit of the Logistic equation.
On the technique in general: hERG is a cardiac potassium channel; its block is linked to QT prolongation.

Data set [2] is described as follows: Mouse pharmacokinetic assay (intragastric administration, plasma HPLC-MS/MS). The format is in vivo. Conditions: ICR mice. On the procedure:
ICR mice were intragastrically administered with the compound at 10 mg/kg or 20 mg/kg. At different time points (0.25 h, 0.5 h, 1 h, 2 h, 4 h, 8 h, 24 h) after administration, the mice blood was collected from the orbit. The collected whole blood was anticoagulated with heparin sodium and centrifuged at 3000 g to obtain mouse plasma samples. Methanol was added to precipitate proteins. The drug concentration in the mouse plasma after administration was determined by the HPLC-MS/MS method. A drug concentration-time curve was plotted and the pharmacokinetic parameters were calculated. The pharmacokinetic behavior in mice after the compound administration was described by means of non-compartment model statistical moment parameters.

A short description of data set [3]: Mouse tolerance assay (once daily for 7 consecutive days). Type of data set: in vivo. Conditions: female ICR mice. On the procedure:
• Assay animals: ICR mice, female, 5 weeks old • Solvent: 2% DMSO+98% (0.5% MC), treated by sufficient vortex and sonicated to obtain a uniform suspension • Assay method: Female ICR mice were divided into 4 groups according to weight balance, with 5 mice in each group. The administration doses were 50 mg/kg and 200 mg/kg respectively. The compound was administrated once daily for 7 consecutive days.

[4] abbreviates: mouse, po, intragastric, 20 mg/kg, plasma.

Chain of SHP2 (Q06124 whole entry): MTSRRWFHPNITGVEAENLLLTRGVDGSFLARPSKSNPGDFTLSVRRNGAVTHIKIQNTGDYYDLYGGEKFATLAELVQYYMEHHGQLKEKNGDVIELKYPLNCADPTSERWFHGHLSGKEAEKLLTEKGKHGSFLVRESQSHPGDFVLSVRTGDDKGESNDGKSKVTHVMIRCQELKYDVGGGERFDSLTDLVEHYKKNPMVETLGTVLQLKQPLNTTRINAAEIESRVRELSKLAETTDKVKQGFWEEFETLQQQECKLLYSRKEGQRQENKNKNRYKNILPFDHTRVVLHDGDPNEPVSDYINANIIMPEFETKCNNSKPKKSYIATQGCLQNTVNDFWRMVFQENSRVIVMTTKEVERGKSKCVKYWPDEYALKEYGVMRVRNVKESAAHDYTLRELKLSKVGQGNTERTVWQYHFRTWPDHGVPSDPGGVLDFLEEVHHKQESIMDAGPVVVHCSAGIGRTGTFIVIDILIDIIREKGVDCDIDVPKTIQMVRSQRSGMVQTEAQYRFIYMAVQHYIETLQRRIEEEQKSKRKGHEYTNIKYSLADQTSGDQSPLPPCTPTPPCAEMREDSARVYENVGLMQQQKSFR
Chain of hERG channel (Q12809 whole entry, the tested form may be a part): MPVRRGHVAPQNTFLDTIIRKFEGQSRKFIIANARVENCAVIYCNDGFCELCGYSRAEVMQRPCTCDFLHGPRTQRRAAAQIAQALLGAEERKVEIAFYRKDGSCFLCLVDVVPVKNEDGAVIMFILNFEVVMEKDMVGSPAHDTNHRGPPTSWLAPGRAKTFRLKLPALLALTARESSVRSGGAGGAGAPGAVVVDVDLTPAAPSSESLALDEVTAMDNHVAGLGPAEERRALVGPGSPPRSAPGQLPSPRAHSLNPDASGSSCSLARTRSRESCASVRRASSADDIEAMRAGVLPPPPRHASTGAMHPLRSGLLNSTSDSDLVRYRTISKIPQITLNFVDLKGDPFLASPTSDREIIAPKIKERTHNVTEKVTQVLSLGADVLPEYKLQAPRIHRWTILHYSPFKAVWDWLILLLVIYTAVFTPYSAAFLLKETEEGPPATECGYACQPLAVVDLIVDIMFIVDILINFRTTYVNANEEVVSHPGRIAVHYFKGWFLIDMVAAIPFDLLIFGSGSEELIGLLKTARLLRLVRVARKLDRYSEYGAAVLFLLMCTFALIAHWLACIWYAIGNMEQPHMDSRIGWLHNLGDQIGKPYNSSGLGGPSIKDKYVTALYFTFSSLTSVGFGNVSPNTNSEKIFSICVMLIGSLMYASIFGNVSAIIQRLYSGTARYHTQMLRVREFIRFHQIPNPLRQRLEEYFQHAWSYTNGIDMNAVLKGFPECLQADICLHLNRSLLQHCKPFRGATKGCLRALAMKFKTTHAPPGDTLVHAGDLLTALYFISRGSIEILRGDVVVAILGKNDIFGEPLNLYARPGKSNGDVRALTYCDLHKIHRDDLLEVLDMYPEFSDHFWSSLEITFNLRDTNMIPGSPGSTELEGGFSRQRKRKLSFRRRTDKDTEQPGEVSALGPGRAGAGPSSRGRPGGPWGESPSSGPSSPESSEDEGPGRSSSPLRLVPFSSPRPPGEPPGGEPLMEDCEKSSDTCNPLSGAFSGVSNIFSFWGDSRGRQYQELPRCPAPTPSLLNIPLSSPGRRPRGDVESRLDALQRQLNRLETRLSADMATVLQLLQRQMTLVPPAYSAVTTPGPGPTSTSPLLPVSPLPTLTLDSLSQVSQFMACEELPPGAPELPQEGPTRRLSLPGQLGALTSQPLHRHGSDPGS

For orientation: IC50 means the midpoint of a concentration-inhibition curve. Take `[2H][C@@]1(N)c2ccccc2OC12CCN(c1nc(N)c(Sc3ccnc(N)n3)nc1C(C)=O)CC2` [Compound 57]: the IC50 (at SHP2; in data set [1]) was not above 20 nM in each case.

For the molecule `[2H][C@@]1(N)c2ccccc2OC12CCN(c1nc(N)c(Sc3ccnc(N)c3Cl)nc1C(=O)OC)CC2` [Compound 59], the half-maximal inhibitory concentration (IC50) (at SHP2; in data set [1]) was not above 20 nM each time.

With `Nc1nc(N2CCC3(CC2)Oc2ccccc2[C@H]3N)c(F)nc1Sc1cccc(-c2ncco2)c1Cl` [Compound 23, (R)-1′-(6-amino-5-((2-chloro-3-(oxazole-2-yl)phenyl)sulfanyl)-3-fluoropyrazine-2-yl)-3H-spiro[benzofuran-2,4′-piperidine]-3-amine], on SHP2, the IC50 was not above 20 nM.

With `CC(=O)c1nc(Sc2cccc(-c3ncco3)c2Cl)cnc1N1CCC2(CC1)Oc1ccccc1[C@H]2N` [Compound 8], the concentration for half-maximal inhibition (IC50) (at SHP2; in data set [1]) was not above 20 nM throughout.

In the case of `[2H][C@@]1(N)c2ccccc2OC12CCN(c1nc(N)c(Sc3cccc(-c4ncco4)c3Cl)nc1C(C)=O)CC2` [Compound 60], the IC50 on SHP2 is not above 20 nM.

`COC(=O)c1nc(Sc2cccc(-c3ncco3)c2Cl)c(N)nc1N1CCC2(CC1)Oc1ccccc1[C@H]2N` [Compound 16, (R)-5-amino-3-(3-amino-3H-spiro[benzofuran-2,4′-piperidine]-1′-yl)-6-((2-chloro-3-(oxazole-2-yl)phenyl)sulfanyl)pyrazine-2-carboxylic acid methyl ester]: the IC50 (on SHP2; in data set [1]) was not above 20 nM in each case.

With `C=Cc1nc(Sc2cccc(-c3ncco3)c2Cl)c(N)nc1N1CCC2(CC1)Oc1ccccc1[C@H]2N` [Compound 22], the half-maximal inhibitory concentration (IC50) on SHP2 is not above 20 nM.

With `Nc1nc(N2CCC3(CC2)Oc2ccccc2[C@H]3N)c(C2COC2)nc1Sc1cccc(-c2ncco2)c1Cl` [Compound 21, (R)-1′-(6-amino-5-((2-chloro-3-(oxazole-2-yl)phenyl)sulfanyl)-3-(oxetane-3-yl)pyrazine-2-yl)-3H-spiro[benzofuran-2,4′-piperidine]-3-amine], the IC50 on SHP2 was not above 20 nM.

As for `COC(=O)c1nc(Sc2ccnc(N)c2Cl)c(N)nc1N1CCC2(CC1)Oc1ccccc1[C@H]2N` [Compound 58], the concentration for half-maximal inhibition (IC50) at SHP2 was not above 20 nM.

In general, Cmax refers to the maximum level reached in the sampled fluid or tissue. For orientation: Tmax means the time at which the peak concentration occurs. With `CC(=O)c1nc(Sc2cccc(-c3ncco3)c2Cl)c(N)nc1N1CCC2(CC1)Oc1ccccc1[C@H]2N` [Compound 1, (R)-1-(5-amino-3-(3-amino-3H-spiro[benzofuran-2,4′-piperidine]-1′-yl)-6-((2-chloro-3-(oxazole-2-yl)phenyl)sulfanyl)pyrazine-2-yl)ethanone], the IC50 against hERG channel (CHO-K1 stable cell line, hERG tail current, 5 concentrations) is more than 10000 nM; at SHP2 it was not above 20 nM; in data set [1] it was not above 20 nM. Besides, the “inhibitory effect on the hERG channel (in words)” value against hERG channel (within the detection concentration range of the assay) is “no obvious inhibitory effect on the hERG channel”. Moreover, the “exposure and absorption in mice (in words)” value in data set [2] (intragastric administration) is “relatively high exposure in mice and both were well absorbed in vivo”. In data set [2] (setting [4]), this molecule returned a Cmax of 2490 ng/mL. Further, in data set [2] (setting [4]), the Tmax came to 4 h. Also, in data set [2] (mouse, po, intragastric, 20 mg/kg, plasma, read-out: AUC0-24 h), the AUC(0-t) is 16900 ng·h/mL.

Molecule `COC(=O)c1nc(Sc2cccc(-c3ccn(C)n3)c2Cl)cnc1N1CCC2(CC1)Cc1ccccc1[C@H]2N` [Compound 19] showed a half-inhibitory concentration (IC50) in data set [1] not above 20 nM.

Usually MTD stands for the largest dose that counted as tolerated. Regarding `Nc1nc(N2CCC3(CC2)Oc2ccccc2[C@H]3N)cnc1Sc1ccnc(N)c1Cl` [TW-45, reference compound], in data set [3] (200 mg/kg once daily), the “days of administration after which death appeared” value is given as 4 days and the “death by the 7th day (in words)” value is recorded as “all animals of the positive control had died by the 7th day”. Further, the MTD at 7 days in data set [3] (mouse, in vivo, once daily for 7 days, read-out: mouse maximum tolerated dose MTD) is less than 200 mg/kg.

Consider `CC(=O)c1nc(Sc2ccnc(-c3ncco3)n2)c(N)nc1N1CCC2(CC1)Oc1ccccc1[C@H]2N` [Compound 24, (R)-1-(5-amino-3-(3-amino-3H-spiro[benzofuran-2,4′-piperidine]-1′-yl)-6-((2-(oxazole-2-yl)pyrimidine-4-yl)sulfanyl)pyrazine-2-yl)ethanone], for which the concentration for half-maximal inhibition (IC50) on SHP2 was not above 20 nM.
